Test results published in patent US10722580B2, “Compositions and methods for treatment and prevention of uropathogenic E. coli infection” (UNIVERSITY OF WASHINGTON, priority 2015, dated 2020).

Legend:
[1] = system: FimH^wt:(186-201)FocH; experiment: Cross-interference of inhibitory mAbs binding to FimH; design: species or system E. coli; details: FimH pre-incubated with antibody, biotinylated mAb binding (FIG. 16)
Method: FIG. 16. Inhibitory mAbs interfere with each other's binding to FimH. […] The data shown are mean±SD of triplicates from one representative experiment of multiple experiments that were performed with similar settings.

[2] = system: FimH^wt-expressing E. coli; experiment: Inhibition of bacterial adhesion to surface-immobilized yeast mannan; assay type: cell-based
Method: (§1) Microtiter 96-well plates were coated with 20 μg/ml of yeast mannan or RNaseB (Sigma-Aldrich) in 0.02 M NaHCO3 buffer at pH 9.6. The wells were quenched with 0.2% bovine serum albumin (BSA, Sigma-Aldrich) in PBS for 20 min. Bacteria expressing FimH adhesin (OD=1 or OD=2) were first preincubated with different concentrations of mAbs for 1 h at 37° C. and then allowed to adhere to ligand-coated surface for another 1 h. After an extensive washing with PBS, plates were dried and bound bacteria were stained with 0.1% crystal violet (Becton Dickinson) for 20 min at room temperature (RT). The wells were washed with water and 50% ethanol was added to the wells. The absorbance was measured at 600 nm.

[3] = system: Klebsiella pneumoniae; experiment: Inhibition of Klebsiella adhesion to surface-immobilized RNaseB; assay type: cell-based; details: 50 μg/ml mAb (FIG. 10)
Method: FIG. 10. […] Data are mean±SD (n=2 independent experiments).
as §1

[4] = system: Klebsiella pneumoniae; experiment: Detachment of 14 h-old Klebsiella biofilm; assay type: cell-based; details: 14-h-old biofilm, 1% mannose or 50 μg/ml mAb (FIG. 11B)
Method: (§2) FIG. 11. […] Data (mean±SD, n=3 independent experiments). […] Data (mean±SD, n=3 independent experiments). Biofilm was quantified using the crystal violet staining method. *, P≤0.05, **, P≤0.0005 (one sample t-test).
(§3) Microtiter 96-well plates were coated with 20 μg/mL of yeast mannan or RNaseB (Sigma-Aldrich) in 0.02 M NaHCO3 buffer at pH 9.6. Bacterial strains grown overnight in 3 ml LB media were spun and washed 1× with minimal essential media (MEM, Difco). […] After washing with PBS, formed biofilms were stained with 0.1% (v/v) crystal violet (Becton Dickinson) as described above for bacterial adhesion assay. […] The wells were washed 3 times with PBS and stain for biofilm detection as described above.

[5] = system: E. coli CFT073; experiment: Passive and active immunization, diabetic mice, bacterial load in urine; assay type: in vivo; details: diabetic (STZ) mice; mAb 150 μg i.p. or LD antigen 15 μg s.c.
Method: (§4) The intraperitoneal injection was completed 1 day prior and 1 day after challenge with CFT073 E. coli (A07 Study for Vaccine candidate, Contract #HHSN2722010000401, Task Order #HHSN27200005, Galveston). […] Mixtures of antibodies for passive transfer were prepared as 150 μg per mouse doses in 50 μl volumes of sterile HBS. The effect of the antibodies was evaluated in two mice models that included non-diabetic and diabetic C57BI/6 mice, respectively. Mice injected with incomplete Freund's adjuvant only (IFA) were used as the control (mock) group in each model. Bacterial load in mice urine was analyzed daily over 14-days' time period starting 24 h after bacterial challenge.
Diabetic state in C57BI/6 mice was induced by the 4 days-treatment with streptozotocin (STZ) by intraperitoneal injection. Groups of 100 C57BI/6 mice were randomly divided into 5 groups of ten for diabetic and for non-diabetic states respectively. […] Bacterial load in mice urine was analyzed daily over 14-days' time starting 24 h after bacterial challenge. Genomic bacterial load was quantified in each urine sample (10 μl) by qPCR. […] For log10 transformation, zero counts (E. coli not detected) were replaced with value 1. […] After exclusion of outliers, 617 (out of initial 673, 91.6%) observations were analyzed using same model.

[6] = system: Klebsiella pneumoniae; experiment: Klebsiella biofilm formation on RNaseB-coated surfaces; assay type: cell-based; details: two Klebsiella FimH variants, 1% mannose or 50 μg/ml mAb (FIG. 11A)
Method: as §2, §3

[7] = system: E. coli UTI89; experiment: Biofilm formation on mannan-coated surface; assay type: cell-based; details: 1% mannose or 50 μg/ml mAb added prior to growth (FIG. 7A)
Method: as §3

[8] = system: E. coli UTI89; experiment: Mouse bladder infection, transurethral inoculation of mAb-pretreated bacteria; assay type: in vivo; details: C57BL/6 mice, 24 h post infection, bacteria pretreated with 500 μg/ml mAb 1 h
Method: Infection of 10- to 11-week-old C57BL/6 female mice was performed as described elsewhere (Kisiela, et al. 2013). Briefly, bacteria were grown in LB medium without shaking for 48 h, harvested, washed twice in PBS and resuspended in PBS at a final concentration of 10^8 CFU per ml. Bacteria were pretreated with 500 μg/ml mAbs for 1 h at 37° C. prior to inoculation. Mice were anesthetized with ketamine/xylazine and twenty-five microliters of mAb-pretreated bacteria in PBS were inoculated transurethrally into mouse bladders via catheter. After 24 h, mice were sacrificed and bladders were aseptically removed and homogenized in 1 mL PBS. Serial dilutions were plated and total bacterial load per bladder was calculated. Statistical significance was determined using two-tailed Mann-Whitney test (GraphPad Prism 6.0 software, La Jolla, Ca).

[9] = system: Klebsiella fimbrial FimH; experiment: Binding of anti-E. coli FimH antibodies to Klebsiella fimbrial FimH; design: species or system Klebsiella pneumoniae; details: FimH^wt and FimH^S62A, 50 and 5 μg/ml mAb (FIG. 9)
Method: FIG. 9. Recognition of Klebsiella FimH by anti-E. coli FimH antibodies. […] Type 1 fimbriae carrying different FimH variants (FimH^wt and FimH^S62A mutant) were incubated with different concentrations of mAbs (50 and 5 μg/ml). Data shown are mean±SD of duplicates from one representative experiment.

[10] = system: E. coli UTI89; experiment: Detachment of 16 h-old biofilm on mannan-coated surface; assay type: cell-based; details: for effect on detachment of pre-formed biofilm: 1% mannose or 50 μg/ml mAb (FIG. 7B)
Method: as §3

[11] = system: E. coli CFT073; experiment: Passive and active immunization, non-diabetic mice, bacterial load in urine; assay type: in vivo
Method: as §4
Diabetic state in C57BI/6 mice was induced by the 4 days-treatment with streptozotocin (STZ) by intraperitoneal injection. Groups of 100 C57BI/6 mice were randomly divided into 5 groups of ten for diabetic and for non-diabetic states respectively. […] Mice were challenged with CFT073 UPEC strain (1×10^6 cfu/50 μl per mouse) via intraurethral catheterization under isoflurane anesthesia. Bacterial load in mice urine was analyzed daily over 14-days' time starting 24 h after bacterial challenge. Genomic bacterial load was quantified in each urine sample (10 μl) by qPCR. Statistical analysis of the data was performed using the Generalized Estimating Equation model (GEE) (xtgee command in STATA software, StataCorp. 2015. Stata Statistical Software: Release 14. College Station, Tex.: StataCorp LP). Overall, 1400 observations were made for 100 mice over 14 days. Out of 1,400 total 237 observations were missing (no urine provided) and were excluded from subsequent analysis. The mice ID were set as a panel variable, treatment type and days as predictor variables with interaction allowed between them; and E. coli counts as an outcome variable. […] For log10 transformation, zero counts (E. coli not detected) were replaced with value 1. […] After exclusion of outliers, 617 (out of initial 673, 91.6%) observations were analyzed using same model.

Chain of FimH^wt:(186-201)FocH (P08191 22-179 limits assumed): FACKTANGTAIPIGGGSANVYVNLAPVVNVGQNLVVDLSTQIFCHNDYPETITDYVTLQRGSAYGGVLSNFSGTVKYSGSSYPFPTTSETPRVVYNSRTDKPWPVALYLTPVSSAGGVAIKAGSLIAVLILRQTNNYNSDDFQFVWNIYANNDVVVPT

## mAb926: mouse monoclonal anti-FimH antibody, VL SEQ ID NO: 3, VH SEQ ID NO: 4; non-competitive parasteric inhibitor
[1]
  interference with the other inhibitory mAb's binding to FimH: strongly cross-interfere with each other's binding to FimH
[2]
  difference in inhibitory potency (IC50) mAb926 vs mAb475: 32 fold
[2]; antibody at its KD concentration
  inhibition of bacterial adhesion at its KD concentration: > 50%
[3]
  effect on Klebsiella adhesion to RNaseB: significantly reduced bacterial adhesion
[4]
  destabilization of pre-formed biofilm: significant (P=0.0005) destabilization of the biofilm
[5]
  effect on bacterial counts in urine vs mock group: reduced bacterial load
[6]
  inhibition of biofilm formation: 76-86%
[7]
  effect on biofilm formation: prevented formation
[8]
  reduction in bacteria recovered from bladder: 83%
[9]
  binding to Klebsiella FimH compared with E. coli FimH: same level of binding to both FimH adhesins
[10]; 50 μg/ml mAb (FIG. 7B)
  biofilm reduction: 93%
[10]
  effect on detachment of pre-formed biofilm: effective dissolution of the biofilm
[11]; non-diabetic C57BI/6 mice, day 1 after challenge, 150 μg mAb i.p. 1 day prior and 1 day after challenge
  estimated average log10 of bacterial counts in urine: 1.31±0.5 log10
[11]; non-diabetic C57BI/6 mice, day 3 after challenge, 150 μg mAb i.p.
  estimated log10 bacterial counts in urine: 0.99±0.4 log10
[11]; non-diabetic mice, mAb 150 μg i.p. or LD antigen 15 μg s.c.
  effect on bacterial counts in urine vs mock group: significant decrease of bacterial counts in urine

## α-methyl-D-mannopyranoside [mannose, reference compound]
[6]
  inhibition of biofilm formation: 38-67%
[7]
  effect on biofilm formation: prevented formation
[10]
  effect on detachment of pre-formed biofilm: neither mAb475 nor soluble mannose caused substantial detachment
